Measurements taken from ChEMBL document CHEMBL1201862, “PubChem BioAssay data set” (2004).
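Values below derive from 48-hour exposures of cells grown in 96-well plates, with endpoints linearly interpolated between the two concentrations bracketing the appropriate inhibition level. At the GI50, growth is halved.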 Activity calls are given as the source filed them. Cut-off read from the data, not from the text of the source: active = GI50 up to about 1.1 µM and inactive = higher.

How the values were obtained:
Experiment in all cases: DTP human tumour cell line panel, 48 h
K562 = test system: K562
OVCAR-4 = test system: OVCAR-4
Hs-578T = test system: Hs-578T
NCI-H522 = test system: NCI-H522
KM12 = test system: KM12
NCI/ADR-RES = test system: NCI/ADR-RES
ACHN = test system: ACHN
HOP-92 = test system: HOP-92
SNB-75 = test system: SNB-75
DU-145 = test system: DU-145
RXF 393 = test system: RXF 393
SNB-19 = test system: SNB-19
U-251 = test system: U-251
UO-31 = test system: UO-31
SR = test system: SR
MDA-MB-231 = test system: MDA-MB-231
NCI-H460 = test system: NCI-H460
RPMI-8226 = test system: RPMI-8226
UACC-62 = test system: UACC-62
EKVX = test system: EKVX
TK-10 = test system: TK-10
HCT-15 = test system: HCT-15
HOP-62 = test system: HOP-62
OVCAR-3 = test system: OVCAR-3
MDA-MB-435 = test system: MDA-MB-435
M14 = test system: M14
LOX IMVI = test system: LOX IMVI
A549 = test system: A549
SF-268 = test system: SF-268
MDA-N = test system: MDA-N
PC-3 = test system: PC-3
HCC 2998 = test system: HCC 2998
SK-MEL-28 = test system: SK-MEL-28
HCT-116 = test system: HCT-116
Malme-3M = test system: Malme-3M
SK-MEL-5 = test system: SK-MEL-5
BT-549 = test system: BT-549
SN12C = test system: SN12C
OVCAR-5 = test system: OVCAR-5
SF-295 = test system: SF-295
CAKI-1 = test system: CAKI-1
UACC-257 = test system: UACC-257
A498 = test system: A498
786-0 = test system: 786-0
NCI-H226 = test system: NCI-H226
OVCAR-8 = test system: OVCAR-8
NCI-H23 = test system: NCI-H23
IGROV-1 = test system: IGROV-1
CCRF-CEM = test system: CCRF-CEM
MOLT-4 = test system: MOLT-4
SW-620 = test system: SW-620
SK-MEL-2 = test system: SK-MEL-2
T47D = test system: T47D
HT-29 = test system: HT-29
MCF7 = test system: MCF7
HL-60 = test system: HL-60
SK-OV-3 = test system: SK-OV-3
COLO 205 = test system: COLO 205
SF-539 = test system: SF-539

With O=C(O)CCCN1CCCCC1 the GI50 (K562) was > 100000 nM (inactive), the GI50 (OVCAR-4) was > 100000 nM (inactive) and the GI50 (Hs-578T) was > 100000 nM (inactive). The GI50 (NCI-H522) was > 100000 nM (inactive), the GI50 (KM12) was > 100000 nM (inactive) and the GI50 (NCI/ADR-RES) was > 100000 nM (inactive). For the same compound, the GI50 (ACHN) was > 100000 nM (inactive), the GI50 (HOP-92) was > 100000 nM (inactive) and the GI50 (SNB-75) was > 100000 nM (inactive). For the same compound, the GI50 (DU-145) was > 100000 nM (inactive), the GI50 (RXF 393) was > 100000 nM (inactive) and the GI50 (SNB-19) was > 100000 nM (inactive). For the same compound, the GI50 (U-251) was > 100000 nM (inactive), the GI50 (UO-31) was > 100000 nM (inactive) and the GI50 (SR) was > 100000 nM (inactive). For the same compound, the GI50 (MDA-MB-231) was > 100000 nM (inactive), the GI50 (NCI-H460) was > 100000 nM (inactive) and the GI50 (RPMI-8226) was > 100000 nM (inactive). For the same compound, the GI50 (UACC-62) was > 100000 nM (inactive), the GI50 (EKVX) was > 100000 nM (inactive) and the GI50 (TK-10) was > 100000 nM (inactive). The GI50 (HCT-15) was greater than 100000 nM, the GI50 (HOP-62) was > 100000 nM (inactive) and the GI50 (OVCAR-3) was > 100000 nM (inactive). For the same compound, the GI50 (MDA-MB-435) was > 100000 nM (inactive), the GI50 (M14) was > 100000 nM (inactive) and the GI50 (LOX IMVI) was > 100000 nM (inactive). The GI50 (A549) was > 100000 nM (inactive), the GI50 (SF-268) was > 100000 nM (inactive) and the GI50 (MDA-N) was > 100000 nM (inactive). The GI50 (PC-3) was > 100000 nM (inactive), the GI50 (HCC 2998) was > 100000 nM (inactive) and the GI50 (SK-MEL-28) was > 100000 nM (inactive). For the same compound, the GI50 (HCT-116) was > 100000 nM (inactive), the GI50 (Malme-3M) was > 100000 nM (inactive) and the GI50 (SK-MEL-5) was > 100000 nM (inactive). For the same compound, the GI50 (BT-549) was > 100000 nM (inactive), the GI50 (SN12C) was > 100000 nM (inactive) and the GI50 (OVCAR-5) was > 100000 nM (inactive). The GI50 (SF-295) was > 100000 nM (inactive), the GI50 (CAKI-1) was > 100000 nM (inactive) and the GI50 (UACC-257) was > 100000 nM (inactive). For the same compound, the GI50 (A498) was > 100000 nM (inactive), the GI50 (786-0) was > 100000 nM (inactive) and the GI50 (NCI-H226) was > 100000 nM (inactive). For the same compound, the GI50 (OVCAR-8) was > 100000 nM (inactive), the GI50 (NCI-H23) was > 100000 nM (inactive) and the GI50 (IGROV-1) was > 100000 nM (inactive). The GI50 (CCRF-CEM) was > 100000 nM (inactive), the GI50 (MOLT-4) was > 100000 nM (inactive) and the GI50 (SW-620) was > 100000 nM (inactive). The GI50 (SK-MEL-2) was > 100000 nM (inactive), the GI50 (T47D) was > 100000 nM (inactive) and the GI50 (HT-29) was > 100000 nM (inactive).
For CC(O)c1cc2c(s1)C(=O)c1c(C(C)O)csc1C2=O (configuration not stated), the GI50 (K562) was 139 nM (active), the GI50 (OVCAR-4) was 177 nM (active) and the GI50 (Hs-578T) was 318 nM (active). For the same compound, the GI50 (NCI-H522) was 305 nM (active), the GI50 (KM12) was 249 nM (active) and the GI50 (NCI/ADR-RES) was 146 nM (active). For the same compound, the GI50 (ACHN) was 261 nM (active), the GI50 (HOP-92) was 248 nM (active) and the GI50 (SNB-75) was 316 nM (active). For the same compound, the GI50 (DU-145) was 119 nM (active), the GI50 (RXF 393) was 187 nM (active) and the GI50 (SNB-19) was 330 nM (active). The GI50 (MCF7) was 57.3 nM (active), the GI50 (U-251) was 316 nM (active) and the GI50 (UO-31) was 316 nM (active). For the same compound, the GI50 (MDA-MB-231) was 63 nM (active), the GI50 (NCI-H460) was 45.1 nM (active) and the GI50 (RPMI-8226) was 150 nM (active). The GI50 (UACC-62) was 58.9 nM (active), the GI50 (EKVX) was 364 nM (active) and the GI50 (TK-10) was 544 nM (active). The GI50 (HCT-15) was 133 nM, the GI50 (HOP-62) was 199 nM (active) and the GI50 (HL-60) was 11.3 nM (active). The GI50 (OVCAR-3) was 34.2 nM (active), the GI50 (MDA-MB-435) was 25.2 nM (active) and the GI50 (M14) was 126 nM (active). The GI50 (LOX IMVI) was 75 nM (active), the GI50 (A549) was 184 nM (active) and the GI50 (SF-268) was 249 nM (active). For the same compound, the GI50 (MDA-N) was 22.6 nM (active), the GI50 (PC-3) was 117 nM (active) and the GI50 (HCC 2998) was 351 nM (active). The GI50 (SK-MEL-28) was 185 nM (active), the GI50 (HCT-116) was 140 nM (active) and the GI50 (Malme-3M) was 32.9 nM (active). For the same compound, the GI50 (SK-MEL-5) was 23.3 nM (active), the GI50 (BT-549) was 190 nM (active) and the GI50 (SN12C) was 138 nM (active). For the same compound, the GI50 (OVCAR-5) was 277 nM (active), the GI50 (SF-295) was 123 nM (active) and the GI50 (CAKI-1) was 382 nM (active). The GI50 (UACC-257) was 80.3 nM (active), the GI50 (A498) was 210 nM (active) and the GI50 (786-0) was 392 nM (active). For the same compound, the GI50 (SK-OV-3) was 401 nM (active), the GI50 (NCI-H226) was 264 nM (active) and the GI50 (COLO 205) was 1280 nM (inactive). For the same compound, the GI50 (OVCAR-8) was 220 nM (active), the GI50 (NCI-H23) was 56.1 nM (active) and the GI50 (SF-539) was 210 nM (active). For the same compound, the GI50 (IGROV-1) was 152 nM (active), the GI50 (CCRF-CEM) was 173 nM (active) and the GI50 (MOLT-4) was 181 nM (active). For the same compound, the GI50 (SW-620) was 118 nM (active), the GI50 (SK-MEL-2) was 148 nM (active) and the GI50 (T47D) was 167 nM (active). The GI50 (HT-29) was 586 nM (active).
